Assay results as given in the NIST ThermoML archive (doi:10.1021/acs.jced.8b00201).
Numbers after ± are expanded uncertainties.

Assay: xn = mol fraction of the nth substance listed
Details: 100 kPa, Liquid; for viscosity: Concentric cylinders viscometry; for mass density: Vibrating tube method

CCCCCCCCCO [nonan-1-ol] + O=C1CCCCC1
viscosity (293.15 K, x2 = 0): 11.41 ± 0.57 mPa·s
viscosity (293.15 K, x2 = 0.0813): 9.78 ± 0.49 mPa·s
viscosity (293.15 K, x2 = 0.1582): 8.31 ± 0.42 mPa·s
viscosity (293.15 K, x2 = 0.2378): 6.98 ± 0.35 mPa·s
viscosity (293.15 K, x2 = 0.3573): 5.42 ± 0.27 mPa·s
viscosity (293.15 K, x2 = 0.4381): 4.61 ± 0.23 mPa·s
viscosity (293.15 K, x2 = 0.5589): 3.69 ± 0.19 mPa·s
viscosity (293.15 K, x2 = 0.6488): 3.2 ± 0.16 mPa·s
viscosity (293.15 K, x2 = 0.724): 2.96 ± 0.15 mPa·s
viscosity (293.15 K, x2 = 0.8481): 2.55 ± 0.13 mPa·s
viscosity (293.15 K, x2 = 0.9411): 2.33 ± 0.12 mPa·s
mass density (293.15 K, x2 = 0): 827.5 ± 20 kg/m3
mass density (293.15 K, x2 = 0.0813): 833.2 ± 20 kg/m3
mass density (293.15 K, x2 = 0.1582): 839 ± 20 kg/m3
mass density (293.15 K, x2 = 0.2378): 845.5 ± 20 kg/m3
mass density (293.15 K, x2 = 0.3573): 856.3 ± 20 kg/m3
mass density (293.15 K, x2 = 0.4381): 864.3 ± 20 kg/m3
mass density (293.15 K, x2 = 0.5589): 877.9 ± 20 kg/m3
mass density (293.15 K, x2 = 0.6488): 889.3 ± 20 kg/m3
mass density (293.15 K, x2 = 0.724): 899.9 ± 20 kg/m3
mass density (293.15 K, x2 = 0.8481): 919.6 ± 20 kg/m3
mass density (293.15 K, x2 = 0.9411): 936.8 ± 20 kg/m3
viscosity (298.15 K, x2 = 0): 9.43 ± 0.47 mPa·s
viscosity (298.15 K, x2 = 0.0813): 8.15 ± 0.41 mPa·s
viscosity (298.15 K, x2 = 0.1582): 6.94 ± 0.35 mPa·s
viscosity (298.15 K, x2 = 0.2378): 5.92 ± 0.3 mPa·s
viscosity (298.15 K, x2 = 0.3573): 4.68 ± 0.24 mPa·s
viscosity (298.15 K, x2 = 0.4381): 4.01 ± 0.2 mPa·s
viscosity (298.15 K, x2 = 0.5589): 3.21 ± 0.16 mPa·s
viscosity (298.15 K, x2 = 0.6488): 2.8 ± 0.14 mPa·s
viscosity (298.15 K, x2 = 0.724): 2.59 ± 0.13 mPa·s
viscosity (298.15 K, x2 = 0.8481): 2.24 ± 0.11 mPa·s
viscosity (298.15 K, x2 = 0.9411): 2.11 ± 0.11 mPa·s
mass density (298.15 K, x2 = 0): 824 ± 20 kg/m3
mass density (298.15 K, x2 = 0.0813): 829.6 ± 20 kg/m3
mass density (298.15 K, x2 = 0.1582): 835.2 ± 20 kg/m3
mass density (298.15 K, x2 = 0.2378): 841.5 ± 20 kg/m3
mass density (298.15 K, x2 = 0.3573): 852.1 ± 20 kg/m3
mass density (298.15 K, x2 = 0.4381): 860 ± 20 kg/m3
mass density (298.15 K, x2 = 0.5589): 873.3 ± 20 kg/m3
mass density (298.15 K, x2 = 0.6488): 884.6 ± 20 kg/m3
mass density (298.15 K, x2 = 0.724): 895 ± 20 kg/m3
mass density (298.15 K, x2 = 0.8481): 914.4 ± 20 kg/m3
mass density (298.15 K, x2 = 0.9411): 931.2 ± 20 kg/m3
viscosity (303.15 K, x2 = 0): 7.86 ± 0.39 mPa·s
viscosity (303.15 K, x2 = 0.0813): 6.78 ± 0.34 mPa·s
viscosity (303.15 K, x2 = 0.1582): 5.87 ± 0.3 mPa·s
viscosity (303.15 K, x2 = 0.2378): 5.03 ± 0.25 mPa·s
viscosity (303.15 K, x2 = 0.3573): 4.03 ± 0.2 mPa·s
viscosity (303.15 K, x2 = 0.4381): 3.49 ± 0.18 mPa·s
viscosity (303.15 K, x2 = 0.5589): 2.87 ± 0.14 mPa·s
viscosity (303.15 K, x2 = 0.6488): 2.53 ± 0.13 mPa·s
viscosity (303.15 K, x2 = 0.724): 2.37 ± 0.12 mPa·s
viscosity (303.15 K, x2 = 0.8481): 2.08 ± 0.11 mPa·s
viscosity (303.15 K, x2 = 0.9411): 1.95 ± 0.1 mPa·s
mass density (303.15 K, x2 = 0): 820.5 ± 20 kg/m3
mass density (303.15 K, x2 = 0.0813): 825.9 ± 20 kg/m3
mass density (303.15 K, x2 = 0.1582): 831.5 ± 20 kg/m3
mass density (303.15 K, x2 = 0.2378): 837.7 ± 20 kg/m3
mass density (303.15 K, x2 = 0.3573): 848.1 ± 20 kg/m3
mass density (303.15 K, x2 = 0.4381): 855.9 ± 20 kg/m3
mass density (303.15 K, x2 = 0.5589): 869.1 ± 20 kg/m3
mass density (303.15 K, x2 = 0.6488): 880.2 ± 20 kg/m3
mass density (303.15 K, x2 = 0.724): 890.5 ± 20 kg/m3
mass density (303.15 K, x2 = 0.8481): 909.6 ± 20 kg/m3
mass density (303.15 K, x2 = 0.9411): 926.3 ± 20 kg/m3
viscosity (308.15 K, x2 = 0): 6.61 ± 0.33 mPa·s
viscosity (308.15 K, x2 = 0.0813): 5.73 ± 0.29 mPa·s
viscosity (308.15 K, x2 = 0.1582): 4.96 ± 0.25 mPa·s
viscosity (308.15 K, x2 = 0.2378): 4.31 ± 0.22 mPa·s
viscosity (308.15 K, x2 = 0.3573): 3.51 ± 0.18 mPa·s
viscosity (308.15 K, x2 = 0.4381): 3.08 ± 0.16 mPa·s
viscosity (308.15 K, x2 = 0.5589): 2.57 ± 0.13 mPa·s
viscosity (308.15 K, x2 = 0.6488): 2.3 ± 0.12 mPa·s
viscosity (308.15 K, x2 = 0.724): 2.16 ± 0.11 mPa·s
viscosity (308.15 K, x2 = 0.8481): 1.93 ± 0.1 mPa·s
viscosity (308.15 K, x2 = 0.9411): 1.79 ± 0.09 mPa·s
mass density (308.15 K, x2 = 0): 817.1 ± 20 kg/m3
mass density (308.15 K, x2 = 0.0813): 822.4 ± 20 kg/m3
mass density (308.15 K, x2 = 0.1582): 827.9 ± 20 kg/m3
mass density (308.15 K, x2 = 0.2378): 834 ± 20 kg/m3
mass density (308.15 K, x2 = 0.3573): 844.3 ± 20 kg/m3
mass density (308.15 K, x2 = 0.4381): 852 ± 20 kg/m3
mass density (308.15 K, x2 = 0.5589): 865 ± 20 kg/m3
mass density (308.15 K, x2 = 0.6488): 876 ± 20 kg/m3
mass density (308.15 K, x2 = 0.724): 886.2 ± 20 kg/m3
mass density (308.15 K, x2 = 0.8481): 905.2 ± 20 kg/m3
mass density (308.15 K, x2 = 0.9411): 921.7 ± 20 kg/m3
viscosity (313.15 K, x2 = 0): 5.6 ± 0.28 mPa·s
viscosity (313.15 K, x2 = 0.0813): 4.85 ± 0.24 mPa·s
viscosity (313.15 K, x2 = 0.1582): 4.2 ± 0.21 mPa·s
viscosity (313.15 K, x2 = 0.2378): 3.68 ± 0.19 mPa·s
viscosity (313.15 K, x2 = 0.3573): 3.04 ± 0.15 mPa·s
viscosity (313.15 K, x2 = 0.4381): 2.71 ± 0.14 mPa·s
viscosity (313.15 K, x2 = 0.5589): 2.33 ± 0.12 mPa·s
viscosity (313.15 K, x2 = 0.6488): 2.13 ± 0.11 mPa·s
viscosity (313.15 K, x2 = 0.724): 2.02 ± 0.1 mPa·s
viscosity (313.15 K, x2 = 0.8481): 1.81 ± 0.09 mPa·s
viscosity (313.15 K, x2 = 0.9411): 1.67 ± 0.08 mPa·s
mass density (313.15 K, x2 = 0): 813.6 ± 20 kg/m3
mass density (313.15 K, x2 = 0.0813): 818.9 ± 20 kg/m3
mass density (313.15 K, x2 = 0.1582): 824.2 ± 20 kg/m3
mass density (313.15 K, x2 = 0.2378): 830.2 ± 20 kg/m3
mass density (313.15 K, x2 = 0.3573): 840.3 ± 20 kg/m3
mass density (313.15 K, x2 = 0.4381): 847.9 ± 20 kg/m3
mass density (313.15 K, x2 = 0.5589): 860.8 ± 20 kg/m3
mass density (313.15 K, x2 = 0.6488): 871.6 ± 20 kg/m3
mass density (313.15 K, x2 = 0.724): 881.8 ± 20 kg/m3
mass density (313.15 K, x2 = 0.8481): 900.6 ± 20 kg/m3
mass density (313.15 K, x2 = 0.9411): 917.1 ± 20 kg/m3
viscosity (318.15 K, x2 = 0): 4.78 ± 0.24 mPa·s
viscosity (318.15 K, x2 = 0.0813): 4.18 ± 0.21 mPa·s
viscosity (318.15 K, x2 = 0.1582): 3.67 ± 0.18 mPa·s
viscosity (318.15 K, x2 = 0.2378): 3.22 ± 0.16 mPa·s
viscosity (318.15 K, x2 = 0.3573): 2.66 ± 0.13 mPa·s
viscosity (318.15 K, x2 = 0.4381): 2.37 ± 0.12 mPa·s
viscosity (318.15 K, x2 = 0.5589): 2.03 ± 0.1 mPa·s
viscosity (318.15 K, x2 = 0.6488): 1.85 ± 0.09 mPa·s
viscosity (318.15 K, x2 = 0.724): 1.77 ± 0.09 mPa·s
viscosity (318.15 K, x2 = 0.8481): 1.59 ± 0.08 mPa·s
viscosity (318.15 K, x2 = 0.9411): 1.5 ± 0.08 mPa·s
mass density (318.15 K, x2 = 0): 810.1 ± 20 kg/m3
mass density (318.15 K, x2 = 0.0813): 815.3 ± 20 kg/m3
mass density (318.15 K, x2 = 0.1582): 820.5 ± 20 kg/m3
mass density (318.15 K, x2 = 0.2378): 826.4 ± 20 kg/m3
mass density (318.15 K, x2 = 0.3573): 836.4 ± 20 kg/m3
mass density (318.15 K, x2 = 0.4381): 844 ± 20 kg/m3
mass density (318.15 K, x2 = 0.5589): 856.7 ± 20 kg/m3
mass density (318.15 K, x2 = 0.6488): 867.4 ± 20 kg/m3
mass density (318.15 K, x2 = 0.724): 877.5 ± 20 kg/m3
mass density (318.15 K, x2 = 0.8481): 896.3 ± 20 kg/m3
mass density (318.15 K, x2 = 0.9411): 912.8 ± 20 kg/m3
viscosity (323.15 K, x2 = 0): 4.1 ± 0.21 mPa·s
viscosity (323.15 K, x2 = 0.0813): 3.61 ± 0.18 mPa·s
viscosity (323.15 K, x2 = 0.1582): 3.2 ± 0.16 mPa·s
viscosity (323.15 K, x2 = 0.2378): 2.84 ± 0.14 mPa·s
viscosity (323.15 K, x2 = 0.3573): 2.4 ± 0.1 mPa·s
viscosity (323.15 K, x2 = 0.4381): 2.17 ± 0.11 mPa·s
viscosity (323.15 K, x2 = 0.5589): 1.9 ± 0.1 mPa·s
viscosity (323.15 K, x2 = 0.6488): 1.75 ± 0.09 mPa·s
viscosity (323.15 K, x2 = 0.724): 1.67 ± 0.08 mPa·s
viscosity (323.15 K, x2 = 0.8481): 1.49 ± 0.08 mPa·s
viscosity (323.15 K, x2 = 0.9411): 1.4 ± 0.07 mPa·s
mass density (323.15 K, x2 = 0): 806.5 ± 20 kg/m3
mass density (323.15 K, x2 = 0.0813): 811.6 ± 20 kg/m3
mass density (323.15 K, x2 = 0.1582): 816.8 ± 20 kg/m3
mass density (323.15 K, x2 = 0.2378): 822.7 ± 20 kg/m3
mass density (323.15 K, x2 = 0.3573): 832.6 ± 20 kg/m3
mass density (323.15 K, x2 = 0.4381): 840.1 ± 20 kg/m3
mass density (323.15 K, x2 = 0.5589): 852.8 ± 20 kg/m3
mass density (323.15 K, x2 = 0.6488): 863.6 ± 20 kg/m3
mass density (323.15 K, x2 = 0.724): 873.7 ± 20 kg/m3
mass density (323.15 K, x2 = 0.8481): 892.5 ± 20 kg/m3
mass density (323.15 K, x2 = 0.9411): 908.9 ± 20 kg/m3
